Where a name gives a salt, the structure may show the parent alone.
Target: T1, P2X4 receptor (recombinant mouse P2X4 purinoceptor) (Mus musculus, UniProt Q9JJX6)
T1 construct: gene P2rx4; the complete extracellular domain, N-terminal His-6 tag, expressed in E. coli
T1 sequence (Q9JJX6 55-338): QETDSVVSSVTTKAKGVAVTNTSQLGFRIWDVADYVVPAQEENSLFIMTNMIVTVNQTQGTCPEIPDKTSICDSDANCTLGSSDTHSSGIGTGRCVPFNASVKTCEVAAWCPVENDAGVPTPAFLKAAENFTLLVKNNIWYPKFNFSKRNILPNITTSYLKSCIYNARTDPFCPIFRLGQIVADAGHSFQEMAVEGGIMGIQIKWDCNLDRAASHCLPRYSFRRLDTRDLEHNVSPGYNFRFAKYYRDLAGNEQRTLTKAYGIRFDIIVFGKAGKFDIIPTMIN
Experiment: SPR (Biacore T200, P2X4 immobilized on CM5 chip)
Assay type: binding

With C=C(C)CCC[C@]1(C)OC(=O)[C@]23CCC4C(=CC[C@H]5C(C)(C)[C@@H](O[C@@H]6OC[C@@H](OS(=O)(=O)O)[C@H](O)[C@H]6O[C@@H]6O[C@H](C)[C@@H](O[C@@H]7O[C@H](CO)[C@@H](O)[C@H](O[C@@H]8O[C@H](CO)[C@@H](O)[C@H](OC)[C@H]8O)[C@H]7O)[C@H](O)[C@H]6O[C@@H]6OC[C@@H](O)[C@H](O)[C@H]6O)CC[C@]45C)[C@]2(C)CC(=O)[C@@H]31 (stereo partly drawn) [CA2-2, 3-O-{3-O-methyl-β-D-glucopyranosyl-(1→3)-β-D-glucopyranosyl-(1→4)-[β-D-xylopyranosyl-(1→2)]-β-D-quinovopyranosyl-(1→2)−4-O-sodium sulfate-β-D-xylopyranosyl}−16-keto-holosta-7,25-diene] the Kd was 45.2 µM.

From PMC5177912, “Glycosides from edible sea cucumbers stimulate macrophages via purinergic receptors” (Scientific Reports, 2016)
